The values below come from US20130217721A1, “COMPOSITIONS AND METHODS FOR DETECTION AND TREATMENT OF B-RAF INHIBITOR-RESISTANT MELANOMAS” (The Regents of the University of California, priority 2010, published 2013).

Experiment [1] concerns M249 R sub-line (M249 R4). Description: Cell survival / proliferation assay (72 h). The experiment is classed as cell-based, human. Conditions: M249 R sub-lines. The protocol:
Cells were maintained in Dulbecco's modified Eagle medium (DMEM) with 10 or 20% fetal bovine serum and glutamine. shRNAs were sub-cloned into the lentiviral vector pLL3.7 and infections carried out with protamine sulphate. Stocks of PLX4032 (Plexxikon) and AZD6244 (commercially available) were made in DMSO. Cells were quantified using CellTiter-GLO Luminescence (Promega).
Cell proliferation experiments were performed in a 96-well format (five replicates), and baseline quantification performed at 24 h after cell seeding along with initiation of drug treatments (72 h). Stocks and dilutions of PLX4032 (Plexxikon), AZD6244 (Selleck Chemicals) and U0126 (Promega) were made in DMSO. siRNA pool (Dharmacon) transfections were carried out in 384-well format. TransIT transfection reagent (Mirus) was added to each well and incubated at 37° C. for 20 min. Subsequently, cells were reverse transfected, and the mixture was incubated for 51-61 h at 37° C. Cells were quantified using CellTiter 96 Aqueous One Solution (Promega) or CellTiter-GLO Luminescence (Promega) following the manufacturer's recommendations.
(§1) Cell culture, infections and drug treatments. Cells were maintained in DMEM with 10 or 20% fetal bovine serum and glutamine. shRNAs for B-RAF and C-RAF were sub-cloned into the lentiviral vector pLL3.7; pBabe B-RAF (V600E) was purchase (plasmid 17544, Addgene); viral supernatants generated by co-transfection with three packaging plasm ids into HEK293T cells; and infections carried out with protamine sulfate. Stocks and dilutions of PLX4032 (Plexxikon, Berkeley, Calif.) and AZD6244 (commercially available) were made in DMSO. Cells were quantified using CellTiter-GLO Luminescence (Promega) or crystal violet staining followed by NIH Image J quantification.

Another experiment has as its target B-RAF(V600E) kinase (Homo sapiens, UniProt P15056, V600E). Description: In vitro kinase assay of immunoprecipitated B-RAF. The experiment is classed as biochemical. Conditions: from resistant sub-lines and short-term cultures compared with parental cell lines; 1 μM PLX4032, 30 min at 30° C. An excerpt: Cells were harvested and protein lysates prepared in a NP40-based buffer before subjected to immunoprecipitation (IP). […] The beads were subsequently pelleted and the supernatant resuspended in sample buffer for western blotting to detect p-MEK and total MEK.

The next experiment concerns melanoma. Description: PLX4032 clinical trial patients: best overall response and progression free survival (Table 2). Format: in vivo, human. Conditions: individual PLX4032 clinical trial patient.
A further experiment addresses p61 BRAF(V600E) (Homo sapiens, UniProt P15056, DEL169-380/V600E). Description: ERK signaling in cells ectopically expressing p61 BRAF(V600E). The experiment is classed as cell-based. The text has this: (§2) FIGS. 6A-6E. […] FIG. 6A. PCR analysis of BRAF in cDNA from parental (P) and C3 cells. Primers were designed at the N-terminus and C-terminus of BRAF. […] Abbreviations: CR1: Conserved Region 1, CR2: Conserved Region 2, CR3: Conserved Region 3, RBD: RAS-binding domain, CRD: Cystine-Rich Domain, AS: Activation Segment, KD: Kinase Domain. FIG. 6B. Full length wild-type BRAF and the 1.7 kb/61 kd splice variant of BRAF(V600E) were cloned into a pcDNA3.1 vector with a FLAG tag at the C-terminus and expressed in 293H cells. The effect of PLX4032 (2 μM for 1 hour) on ERK signaling in the presence of p61 BRAF(V600E) was analyzed by western blot for pMEK and pERK. FIG. 6C. To compare levels of dimerization, 293H cells co-expressing FLAG tagged and V5-tagged p61 BRAF(V600E), full length BRAF(V600E) and the corresponding dimerization-deficient mutants p61 BRAF(V600E/R509H) and BRAF(V600E/R509H) were lysed followed by immunoprecipitation with FLAG antibody. Western blots with V5 or FLAG antibodies were performed as indicated. FIG. 6D. Comparison of MEK/ERK activation and sensitivity of ERK signaling to PLX4032 (2 μM for 1 hour) in 293H cells expressing either Flag-tagged BRAF(V600E) or the dimerization mutant Flag-tagged BRAF(V600E/R509H). FIG. 6E. Constructs expressing V5-tagged BRAF(V600E), p61 BRAF(V600E) or the dimerization mutant p61 BRAF(V600E/R509H) were transfected into 293H cells and treated with DMSO or 2 μM PLX4032 for 1 hour.
Plasmids/Trasfections. Flag-tagged BRAF constructs have been described previously^4. All other plasmids were created using standard cloning methods, with pcDNA3.1 (Invitrogen) as a vector. Mutations were introduced using the site-directed Mutagenesis Kit (Stratagene). For transfection studies, cells were seeded at 35 mm or 100 mm plates and transfected the following day using Lipofectamine 2000 (Invitrogen). Cells were collected 24 hours later for subsequent analysis.

A further experiment concerns the target p61 BRAF(V600E/R509H) (Homo sapiens, UniProt P15056, DEL169-380/R509H/V600E). Description: ERK signaling in 293H cells expressing p61 BRAF(V600E/R509H). Format: cell-based. Conditions: 2 μM PLX4032 for 1 hour.
Description: as §2, with “Constructs expressing V5-tagged BRAF(V600E), p61 BRAF(V600E) or the dimerization mutant p61 BRAF(V600E/R509H) were transfected into 293H cells and treated with DMSO or 2 μM PLX4032 for 1 hour.” left out

The subject of another experiment is pERK levels in M395 R. Description: Western blot of pERK after acute vemurafenib titration. The experiment is classed as cell-based, human. Conditions: vemurafenib titration 1 h after a 24 h drug withdrawal. (In western blotting, separated proteins are transferred to a membrane and probed.)
Experiment [2] concerns M395 P over-expressing V600EB-RAF. Description: Cell survival assay (72 h) with V600EB-RAF over-expression. Format: cell-based, human. The protocol:
FIGS. 9A-9C. ^V600EB-RAF levels modulate melanoma sensitivity to vemurafenib. […] Dashed line, 50% inhibition. […] FIG. 9C, Increasing (in M395 P) or decreasing (in M395 R) BRAF^V600E levels decreased or increased pERK sensitivity to PLX4032 (0, 0.1, 1, 10 μM) treatments for 1 h, respectively.
as §1

Experiment [3] deals with MAPK signalling (p-MEK1/2 and p-ERK1/2). Conditions: PLX4032 0, 0.01, 0.1, 1 and 10 μM.
Description: FIG. 1A, Parental and PLX4032-resistant sub-lines were treated with increasing PLX4032 concentration (0, 0.01, 0.1, 1 and 10 μM), and the effects on MAPK signalling were determined by immunoblotting for p-MEK1/2 and p-ERK1/2 levels. Total MEK1/2, ERK1/2 and tubulin levels, loading controls.
Western blots were probed with antibodies against p-MEK1/2 (S217/221), MEK1/2, p-ERK1/2 (T202N204), ERK1/2, PDGFRβ, and EGFR (Cell Signaling Technologies), and N-RAS (Santa Cruz Biotechnology), pan-RAS (Thermo Scientific) and tubulin (Sigma). p-RTK arrays were performed according to the manufacturer's recommendations (Human Phospho-RTK Array Kit, R&D Systems).
Cell lysates for western blotting were made in RIPA (Sigma) with protease inhibitor cocktail (Roche) and phosphatase inhibitor cocktails I and II (Santa Cruz Biotechnology). Western blots were probed with antibodies against p-MEK1/2 (S217/221), total MEK1/2, p-ERK1/2 (T202/Y204), total ERK1/2, PDGFRβ, and EGFR (all from Cell Signaling Technologies), B-RAF and N-RAS (Santa Cruz Biotechnology), pan-RAS (Thermo Scientific) and tubulin (Sigma). p-RTK arrays were performed according to the manufacturer's recommendations (Human Phospho-RTK Array Kit, R&D Systems).
Experiment [4] deals with V600EB-RAF-positive melanomas. Conditions: patients with V600EB-RAF-positive melanomas; cited from earlier work.
Experiment [5] has as its system ERK signaling (pMEK, pERK). Description: Western blot of ERK signaling (pMEK, pERK) in SKMEL-239 parental cells and resistant clones.
Description: PLX4032 IC50 curves (at 5 days) for the SKMEL-239 parental cell line and five PLX4032-resistant clones. […] Western blot for components of the ERK and AKT signaling pathways in parental and resistant clones (2 μM PLX4032/24 hours). […] Dose-response of pMEK and pERK downregulation at 1 hour to increasing concentrations of PLX4032 in parental and two representative resistant clones (C3 and C5). […] Graphic representation of the chemiluminescent signal intensities from 5D and determination of IC50s for inhibition of MEK phosphorylation by PLX4032 in the parental and C3 and C5 clones.
Western blotting and receptor tyrosine kinase (RTK) arrays. […] The following antibodies were used: p217/p221-MEK (pMEK), p202/p204-ERK (pERK), MEK, ERK, (Cell Signaling), V5 tag (Invitrogen), BRAF, cyclin Flag tag, β-actin (Sigma). […] Membranes were exposed to chemiluminescent reagents and images captured using the ImageQuant LAS 4000 instrument (GE HealthCare).

“And” between values parts separate entries of the source, which are not always exact repeats. Equal entries are not always repeated. “Also recorded” adds a separate entry of the source. Where two headings read alike, the source gives them in different places.

Chain of p61 BRAF(V600E) (P15056 with tags, fused parts or gaps DEL169-380/V600E): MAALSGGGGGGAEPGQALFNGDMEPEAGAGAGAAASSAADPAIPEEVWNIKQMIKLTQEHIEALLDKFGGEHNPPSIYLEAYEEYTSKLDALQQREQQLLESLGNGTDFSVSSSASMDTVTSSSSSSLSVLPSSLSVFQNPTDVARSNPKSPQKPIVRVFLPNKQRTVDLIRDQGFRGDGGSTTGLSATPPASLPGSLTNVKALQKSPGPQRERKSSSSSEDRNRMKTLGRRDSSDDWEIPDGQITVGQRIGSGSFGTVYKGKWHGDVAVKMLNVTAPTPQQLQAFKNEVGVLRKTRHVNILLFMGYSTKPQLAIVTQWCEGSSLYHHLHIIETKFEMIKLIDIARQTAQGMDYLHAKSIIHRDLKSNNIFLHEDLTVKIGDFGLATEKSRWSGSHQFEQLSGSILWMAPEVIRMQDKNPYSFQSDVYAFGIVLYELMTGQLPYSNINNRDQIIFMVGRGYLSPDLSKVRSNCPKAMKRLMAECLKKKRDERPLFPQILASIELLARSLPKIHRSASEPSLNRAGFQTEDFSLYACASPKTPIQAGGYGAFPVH
Chain of B-RAF(V600E) kinase (P15056 whole entry V600E): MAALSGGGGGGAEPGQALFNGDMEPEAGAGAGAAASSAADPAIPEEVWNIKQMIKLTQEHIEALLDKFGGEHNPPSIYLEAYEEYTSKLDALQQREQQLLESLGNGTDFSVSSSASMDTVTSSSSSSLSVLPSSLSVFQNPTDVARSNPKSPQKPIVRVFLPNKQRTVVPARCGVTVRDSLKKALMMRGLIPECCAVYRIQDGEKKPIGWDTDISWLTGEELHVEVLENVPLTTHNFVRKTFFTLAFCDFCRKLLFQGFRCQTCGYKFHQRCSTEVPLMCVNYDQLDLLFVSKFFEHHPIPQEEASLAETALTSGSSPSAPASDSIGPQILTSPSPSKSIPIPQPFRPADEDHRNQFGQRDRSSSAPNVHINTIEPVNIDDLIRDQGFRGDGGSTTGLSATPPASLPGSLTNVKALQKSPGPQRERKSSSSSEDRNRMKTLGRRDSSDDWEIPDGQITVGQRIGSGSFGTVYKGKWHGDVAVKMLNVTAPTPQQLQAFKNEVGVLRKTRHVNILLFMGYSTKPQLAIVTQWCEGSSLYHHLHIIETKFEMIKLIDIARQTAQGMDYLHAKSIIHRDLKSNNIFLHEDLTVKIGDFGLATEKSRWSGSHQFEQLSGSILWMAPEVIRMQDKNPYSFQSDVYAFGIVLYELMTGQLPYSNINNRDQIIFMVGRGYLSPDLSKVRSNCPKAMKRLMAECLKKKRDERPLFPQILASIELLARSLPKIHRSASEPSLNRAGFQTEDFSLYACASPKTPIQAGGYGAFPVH
Chain of p61 BRAF(V600E/R509H) (P15056 with tags, fused parts or gaps DEL169-380/R509H/V600E): as the sequence (P15056 with tags, fused parts or gaps DEL169-380/V600E) above, with R297H counted along it

On to `CCCS(=O)(=O)Nc1ccc(F)c(C(=O)c2c[nH]c3ncc(-c4ccc(Cl)cc4)cc23)c1F` [PLX4032], for which the GI50 in [1] (Homo sapiens, not reached up to 10 μM, read-out: GI50, concentration of drug that inhibits growth of cells by 50%) is > 10 µM. Moreover, in [1] (in contrast to parental cells), the “growth at low PLX4032 concentrations” value was “paradoxically enhanced growth”. Besides, on B-RAF(V600E) kinase, the “sensitivity of immunoprecipitated B-RAF kinase activities” value is on record as “similarly sensitive”. Besides, the Best overall response with melanoma is 83% and 14% and 37% and 53% (2×) and 73% and 84% and 32% and 42% and 24% and 57% and 75%. In addition, in the experiment with melanoma, the “Progression free survival” value was 161 days and 113 days (2×) and 270 days and 106 days and 141 days and 149 days and 137 days and 126 days (2×) and 466 days and 84 days. In addition, on p61 BRAF(V600E) (293H cells, 2 μM PLX4032 for 1 hour), the “sensitivity of ERK signaling (pMEK, pERK)” value is given as “resistant; also recorded: insensitive”. For the same compound, the “inhibition of ERK signaling” value is on record as “failure of PLX4032 to effectively inhibit ERK signaling” against p61 BRAF(V600E) (HT-29 (BRAF(V600E)) colorectal carcinoma cells expressing p61 BRAF(V600E)); “failure of PLX4032 to effectively inhibit ERK signaling” at p61 BRAF(V600E) (parental SKMEL-239 cells expressing p61 BRAF(V600E)); “effectively inhibits” in [5] (SKMEL-239 parental, 2 μM PLX4032). Further, the ERK signaling entry at p61 BRAF(V600E/R509H) is listed as “inhibited”. In addition, the “pERK levels, sensitivity to acute V600EB-RAF inhibition” value in the experiment with pERK levels in M395 R is reported as “highly resistant”. In addition, the “vemurafenib resistance conferred by V600EB-RAF over-expression” value in experiment [2] was “highly saturable by micromolar concentrations”. For the same compound, the “PLX4032-induced decreases in p-MEK1/2 and p-ERK1/2” value in experiment [3] (M229 R5) and in [3] (M238 R1) was “similarly sensitive” each time. Further, in [3] (M249 R4), the “PLX4032-induced MEK/ERK inhibition” value is “strong resistance”. Further, in [3] (all parental cells (M229, M238, M249)), the “p-MEK1/2 and p-ERK1/2 levels” value is recorded as “dose-dependent decreases”. Further, the anti-tumor response rate in experiment [4] was 80%. Besides, in experiment [5] (PLX4032-resistant SKMEL-239 clones), the “sensitivity of ERK signaling to the drug” value is “decreased sensitivity”. Besides, in experiment [5] (SKMEL-239 C3 clone, 1 hour), the “IC50 for pMEK inhibition relative to the parental cell line” value is reported as “more than 100 fold”. In [5] (SKMEL-239 C5 clone, 1 hour), the “pMEK IC50 relative to the parental cell line” value stood at 4.5 fold.
